Results taken from the supplement of paper PMC10307832.

Key:
Assay in all cases: relative viability (nuclei count vs DMSO), 5 days (fraction); higher = more cells survive
Dactolisib + Linsitinib = compound: Cn1c(=O)n(-c2ccc(C(C)(C)C#N)cc2)c2c3cc(-c4cnc5ccccc5c4)ccc3ncc21 [Dactolisib] + C[C@]1(O)C[C@@H](c2nc(-c3ccc4ccc(-c5ccccc5)nc4c3)c3c(N)nccn32)C1 [Linsitinib] (partner 1 µM)
Outline: (§1)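 After 5 days of treatment, lung cancer cells in 1536-well plates were fixed and stained in a single step (final 0.05% Triton X-100, 1% formaldehyde, 1 ug/ml Hoechst) and their nuclei counted on 4× images. Treatment had been applied by pin tool the day after seeding as one drug alone or as a fixed anchor-drug dose with five library-drug doses (not always all listed) in √10 steps. Relative viability is the nuclei count of treated wells divided by that of vehicle wells, and values are medians of duplicate plates.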

Dactolisib + Trametinib = compound: Cn1c(=O)n(-c2ccc(C(C)(C)C#N)cc2)c2c3cc(-c4cnc5ccccc5c4)ccc3ncc21 [Dactolisib] + CC(=O)Nc1cccc(-n2c(=O)n(C3CC3)c(=O)c3c(Nc4ccc(I)cc4F)n(C)c(=O)c(C)c32)c1 [Trametinib] (partner 0.02 µM)
Outline: as §1

AZ505 + Luminespib = compound: C1CCC(CC1)N(CCNCCC2=C3C(=C(C=C2)O)NC(=O)CO3)C(=O)CCNCCC4=CC(=C(C=C4)Cl)Cl [AZ505] + CCNC(=O)c1noc(-c2cc(C(C)C)c(O)cc2O)c1-c1ccc(CN2CCOCC2)cc1 [Luminespib] (partner 0.01 µM)
Outline: as §1

Dactolisib + Decitabine = compound: Cn1c(=O)n(-c2ccc(C(C)(C)C#N)cc2)c2c3cc(-c4cnc5ccccc5c4)ccc3ncc21 [Dactolisib] + Nc1ncn([C@H]2C[C@H](O)[C@@H](CO)O2)c(=O)n1 [Decitabine] (partner 2 µM)
Outline: as §1

Cell Line	relative viability (Dactolisib + Linsitinib; first compound 0.002 µM)	relative viability (Dactolisib + Linsitinib; first compound 0.006325 µM)	relative viability (Dactolisib + Linsitinib; first compound 0.02 µM)	relative viability (Dactolisib + Linsitinib; first compound 0.06325 µM)	relative viability (Dactolisib + Linsitinib; first compound 0.2 µM)	relative viability (Dactolisib + Trametinib; first compound 0.002 µM)	relative viability (Dactolisib + Trametinib; first compound 0.006325 µM)	relative viability (Dactolisib + Trametinib; first compound 0.02 µM)	relative viability (Dactolisib + Trametinib; first compound 0.06325 µM)	relative viability (Dactolisib + Trametinib; first compound 0.2 µM)	relative viability (AZ505 + Luminespib; first compound 0.08 µM)	relative viability (AZ505 + Luminespib; first compound 0.253 µM)	relative viability (AZ505 + Luminespib; first compound 0.8 µM)	relative viability (AZ505 + Luminespib; first compound 2.53 µM)	relative viability (AZ505 + Luminespib; first compound 8 µM)	relative viability (Dactolisib + Decitabine; first compound 0.002 µM)	relative viability (Dactolisib + Decitabine; first compound 0.006325 µM)	relative viability (Dactolisib + Decitabine; first compound 0.02 µM)	relative viability (Dactolisib + Decitabine; first compound 0.06325 µM)	relative viability (Dactolisib + Decitabine; first compound 0.2 µM)
201T	1.03	1.08	0.979	0.862	0.73	0.73	0.713	0.688	0.668	0.449	1.01	1.05	1.01	1.02	1.08	0.87	0.864	0.808	0.706	0.477
A549	0.578	0.58	0.465	0.194	0.125	–	–	–	–	–	–	–	–	–	–	0.34	0.292	0.248	0.204	0.12
A-427	1.16	1.12	1.14	0.748	0.609	0.669	0.637	0.694	0.4	0.369	0.708	1.02	0.789	1.01	1.38	0.605	0.571	0.609	0.457	0.436
ABC-1	0.948	0.614	0.694	0.363	0.326	–	–	–	–	–	0.865	0.472	0.524	0.839	0.717	1.22	1.02	1.13	0.999	0.827
BEN	0.888	0.852	0.647	0.446	0.297	0.925	0.952	0.959	0.61	0.411	0.367	0.564	0.352	0.336	0.449	0.802	0.692	0.63	0.518	0.41
CAL-12T	0.911	0.72	0.753	0.291	0.334	0.343	0.312	0.248	0.213	0.184	0.341	0.596	0.265	0.377	0.64	–	–	–	–	–
COR-L23	1.01	0.8	0.448	0.17	0.139	0.602	0.453	0.305	0.176	0.144	0.54	0.771	0.611	0.613	0.706	0.605	0.445	0.32	0.23	0.182
COR-L 105	1.17	0.653	0.948	0.362	0.312	0.43	0.413	0.4	0.425	0.394	0.739	0.707	0.765	0.831	0.905	0.578	0.629	0.598	0.395	0.326
Calu-6	0.875	0.939	0.898	0.492	0.495	–	–	–	–	–	–	–	–	–	–	–	–	–	–	–
ChaGo-K-1	–	–	–	–	–	0.846	0.912	0.91	0.813	0.791	0.513	0.603	0.556	0.673	0.474	0.558	0.541	0.51	0.527	0.501
EBC-1	0.974	0.756	0.863	0.202	0.177	–	–	–	–	–	–	–	–	–	–	–	–	–	–	–
EKVX	0.896	0.908	0.962	0.682	0.327	0.368	0.377	0.258	0.229	0.213	0.873	0.615	0.831	0.846	0.91	0.343	0.313	0.284	0.272	0.22
EMC-BAC-2	0.872	0.806	0.798	0.591	0.475	0.897	0.866	0.839	0.461	0.375	1.14	1.13	1.23	1.03	1.19	1.01	0.861	0.888	0.54	0.551
EPLC-272H	1.16	1.09	0.969	0.575	0.491	0.264	0.261	0.28	0.245	0.201	–	0.161	0.373	0.25	0.301	0.36	0.364	0.317	0.281	0.23
H3255	1.13	0.919	0.967	0.626	0.416	0.657	0.58	0.507	0.539	0.455	0.887	0.811	0.939	0.876	0.963	0.671	0.614	0.559	0.511	0.415
HARA	1	0.884	0.842	0.573	0.211	0.872	0.549	0.732	0.259	0.218	0.622	0.32	0.444	0.628	0.324	0.708	0.558	0.634	0.623	0.356
HCC-15	0.976	0.864	0.873	0.441	0.367	0.383	0.346	0.365	0.215	0.162	0.264	0.323	0.346	0.312	0.302	0.626	0.599	0.617	0.33	0.208
HCC-44	0.707	0.741	0.431	0.315	0.265	1.14	1.13	1.08	0.952	0.737	0.969	1.03	1.03	1.09	1.18	1.04	0.976	0.937	0.944	0.878
